Values after ≈ are worked out from the molar mass of the structure shown.
Experiments:
[1] = test system: Acinetobacter baumannii AB5075; experiment: MIC/MBC by CLSI broth microdilution, ESKAPE panel; type: cell-based
Procedure: (§1) Minimal inhibitory concentrations (MICs) were determined by the CLSI broth microdilution method. Briefly, representative members of the […] panel of pathogens were grown overnight in Mueller-Hinton (MH) broth at 30° C. Each organism was diluted to a final concentration of 5×10^5 […] using McFarland turbidity standards. Concentrations of vibroxin followed twofold dilutions starting at 32 μg/mL. Assays were incubated for 18h at 30° C. […] Cell suspensions without visible growth were then plated out on LB agar plates to determine the minimal bactericidal concentration (MBC). The MBC was set as the lowest concentration required to kill 99.9% of the originally inoculated 5.10^5 CFU/ml. All MIC and MBC determinations were performed in triplicate.

[2] = test system: Acinetobacter baumannii ATCC17978; experiment: MIC/MBC by CLSI broth microdilution, ESKAPE panel; type: cell-based
Procedure: as §1

[3] = test system: Acinetobacter baumannii AYE; experiment: MIC/MBC by CLSI broth microdilution, ESKAPE panel; type: cell-based
Procedure: as §1

[4] = test system: Acinetobacter baumannii DSM25645; experiment: MIC/MBC by CLSI broth microdilution, ESKAPE panel; type: cell-based
Procedure: as §1

[5] = test system: Acinetobacter baumannii S1; experiment: MIC/MBC by CLSI broth microdilution, ESKAPE panel; type: cell-based
Procedure: as §1

[6] = test system: Enterobacter cloacae DSM16690; experiment: MIC by CLSI broth microdilution, ESKAPE panel; type: cell-based; settings: MH broth, 18h at 30° C.
Procedure: as §1

[7] = test system: Enterococcus faecium DSM25390; experiment: MIC by CLSI broth microdilution, ESKAPE panel; type: cell-based; settings: MH broth, 18h at 30° C.
Procedure: as §1

[8] = test system: Klebsiella pneumoniae DSM26371; experiment: MIC by CLSI broth microdilution, ESKAPE panel; type: cell-based; settings: MH broth, 18h at 30° C.
Procedure: as §1

[9] = test system: Pseudomonas aeruginosa DSM29239; experiment: MIC by CLSI broth microdilution, ESKAPE panel; type: cell-based; settings: MH broth, 18h at 30° C.
Procedure: as §1

[10] = test system: Staphylococcus aureus DSM21979; experiment: MIC by CLSI broth microdilution, ESKAPE panel; type: cell-based; settings: MH broth, 18h at 30° C.
Procedure: as §1

[11] = test system: multidrug-resistant A. baumannii strains; experiment: MIC against multidrug-resistant A. baumannii strains; type: cell-based; settings: Acinetobacter baumannii
Procedure: Minimal inhibitory concentrations (MICs) were determined by the CLSI broth microdilution method. Briefly, representative members of the ESKAPE panel of pathogens were grown overnight in Mueller-Hinton (MH) broth at 30° C. Each organism was diluted to a final concentration of 5×10^5 […] using McFarland turbidity standards. Concentrations of vibroxin followed twofold dilutions starting at 32 μg/mL. Assays were incubated for 18h at 30° C.

[12] = test system: A2780 human ovarian cancer cells; experiment: Cytotoxicity, SRB assay, A2780 cells; type: cell-based; settings: 24 h exposure, 72 h recovery
Procedure: The cells were obtained from the European Collection of Animal Cell Culture and grown as single monolayers in Roswell Park Memorial Institute medium (RPMI-1640) supplemented with 10% (v/v) fetal calf serum, 1% (v/v) 2 mM L-glutamine and 1% (v/v) penicillin (10 k units/mL)/streptomycin (10 mg/mL). Cells were kept at 310 K in a humidified atmosphere containing 5% CO2 and maintenance passages were done at ca. 80% confluency.
For cytotoxicity measurements, 96-well plates were used to seed 5000 A2780 cells per well. These were left to pre-incubate in drug-free media at 310 K for 48 h before adding various concentrations of vibroxin. A stock solution of vibroxin was prepared in 5% v/v DMSO and 95% v/v cell culture medium. Then, serial dilutions with culture medium were carried out to achieve working concentrations. […] The percentage of viable cells resulting from exposure to vibroxin was determined by measuring the absorbance due to soluble sulforohodamine relative to an untreated control. The absorbance measurements were carried out using a BioRad iMark microplate reader with a 470 nm filter. Mean percentage cell viability values+/−1 standard deviation were calculated from duplicates of triplicates in two independent sets of experiments.

[13] = Alkaline hydrolysis of the ester linkage, LC-MS analysis; type: physicochemical; settings: 0.4M KOH, 37° C., 4h
Procedure: The relative stereochemistry of the dihydroxycyclohexane carboxylic acid (DHCCA) moiety in vibroxin was determined by hydrolyzing the ester linkage in vibroxin under basic conditions. […] The same was not true for the corresponding portion of enacyloxin, which had degraded. […] The alkaline hydrolysis reaction was carried out by combining 15 μl of a 5 mg/ml solution of vibroxin/enacyloxin in methanol with 185 μl 0.4M KOH. Following incubation at 37° C. for 4h, the mixture was acidified (<pH 4) with 35% HCl. The samples were analysed by UHPLC-ESI-QTOF-MS analysis using a Dionex UltiMate 3000 RS UHPLC connected to a Zorbax Eclipse Plus column (C18, 100×2.1 mm, 1.8 μm) coupled to a Bruker MaXis IMPACT mass spectrometer. The mass spectrometer was operated in positive ion mode with a scan range of 50-3000 m/z.

A. baumannii strains = settings: see Furukawa et al. 2007; cited from earlier work
[14] = lowest concentration required to kill 99.9%

| Compound | MIC ([1]; MH broth, 18h at 30° C.) [µg/mL] | MBC [1, 14] [µg/mL] | MIC ([2]; MH broth, 18h at 30° C.) [µg/mL] | MBC [2, 14] [µg/mL] | MIC ([3]; MH broth, 18h at 30° C.) [µg/mL] | MBC [3, 14] [µg/mL] | MIC ([4]; MH broth, 18h at 30° C.) [µg/mL] | MBC [4, 14] [µg/mL] | MIC ([5]; MH broth, 18h at 30° C.) [µg/mL] | MBC [5, 14] [µg/mL] | MIC [6] [µg/mL] | MIC [7] [µg/mL] | MIC [8] [µg/mL] | MIC [9] [µg/mL] | MIC [10] [µg/mL] | MIC [11] [µg/mL] | IC50 [12] [µM] | polyketide chain resulting from alkaline hydrolysis of the ester linkage, detection by LC-MS [13] | chemical stability (comparison) ([13]; alkaline hydrolysis) | MIC (A. baumannii strains) [µg/mL] |
| --- | --- | --- | --- | --- | --- | --- | --- | --- | --- | --- | --- | --- | --- | --- | --- | --- | --- | --- | --- | --- |
| CC(/C=C/C=C/C(=O)OC1CC(C(=O)O)CCC1O)=C\C=C\C=C(/Cl)C(C)C(O)C(O)C(O)CC(O)/C=C/C=C/C(C)C (stereo not shown) [vibroxin] | 2 (≈ 3.21 µM) | 4 (≈ 6.42 µM) | 2 (≈ 3.21 µM) | 8 (≈ 12.8 µM) | 2 (≈ 3.21 µM) | 4 (≈ 6.42 µM) | 2 (≈ 3.21 µM) | 8 (≈ 12.8 µM) | 1 (≈ 1.6 µM) | 8 (≈ 12.8 µM) | > 32 | > 32 | > 32 | > 32 | > 32 | 2 (≈ 3.21 µM) | 50 to 100 | could also be detected by LC-MS | greater chemical stability than enacyloxin |  |
| C-18 deschloro-enacyloxin |  |  |  |  |  |  |  |  |  |  |  |  |  |  |  |  |  |  |  | > 32 |
| CC/C=C/[C@@H](OC(N)=O)[C@@H](Cl)[C@H](O)CC(=O)[C@@H](O)[C@H](O)C(C)/C(Cl)=C/C=C/C=C(C)/C=C/C=C/C(=O)O[C@@H]1CC(C(=O)O)CC[C@@H]1O (stereo partly shown) [enacyloxin, enacyloxin IIa, reference compound] |  |  |  |  |  |  |  |  |  |  |  |  |  |  |  | 2 (≈ 2.85 µM) |  | had degraded |  |  |
